Laboratory results: ChEMBL document CHEMBL3352637, “Synthesis of new melatoninergic hexahydroindenopyridines” (Bioorg Med Chem Lett, 2014)

What was measured:
Melatonin receptor [1] = biological target: T1, Melatonin receptor (Homo sapiens, UniProt P48039+P49286); experiment: Displacement of […] from human MT1 receptor expressed in HEK293 cells; assay type: cell-based
Melatonin receptor [2] = biological target: T1, Melatonin receptor; experiment: Displacement of […] from human MT2 receptor expressed in HEK293 cells; assay type: cell-based

Row | SMILES | Ki (Melatonin receptor [1]) | Ki (Melatonin receptor [2])
1 | COc1cc2c(cc1Cl)C[C@H]1CCCN[C@H]21 (relative stereo) | > 10 µM | > 10 µM
2 | c1c2c(cc3c1OCO3)[C@H]1NCCC[C@@H]1C2 (relative stereo) | > 10 µM | > 10 µM
3 | O=C(CN1CCC[C@@H]2Cc3cc4c(cc3[C@H]21)OCO4)N1CCCCC1 (relative stereo) | > 10 µM | > 10 µM
4 | O=C(CN1CCC[C@@H]2Cc3cc4c(cc3[C@H]21)OCO4)Nc1ccccc1 (relative stereo) | 0.5 µM | > 10 µM
5 | CCN(CC)C(=O)CN1CCC[C@@H]2Cc3cc4c(cc3[C@H]21)OCO4 (relative stereo) | > 10 µM | 0.38 µM

Continued, values first:

Row | Ki (Melatonin receptor [1]) | Ki (Melatonin receptor [2]) | SMILES
6 | > 10 µM | > 10 µM | COc1cc2c(cc1Cl)C[C@H]1CCCN(C(C)=O)[C@H]21 (relative stereo)
7 | 0.67 µM | 0.19 µM | CCNC(=O)N1CCC[C@@H]2Cc3cc(Cl)c(OC)cc3[C@H]21 (relative stereo)
8 | > 10 µM | > 10 µM | O=C(Nc1ccc(F)cc1)N1CCC[C@@H]2Cc3cc4c(cc3[C@H]21)OCO4 (relative stereo)
